target: human sodium channel NaV1.2 (Homo sapiens, UniProt Q99250); test: NaV1.2 inhibition, automated patch-clamp (Q-Patch HTX), slow inactivated state (state C); format: cell-based; conditions: not given
Source text: In vitro method for NaV1.2 inhibition assays: The methods utilized to assess the inhibitory activity of compounds on NaV1.2 were based on the methods described by Liu et al. [Liu Y, Beck E J, & Flores C M (2011): Validation of a patch clamp screening protocol that simultaneously measures compound activity in multiple states of the voltage-gated sodium channel Nav1.2. Assay Drug Development Technology 9, 628-634]. For these electrophysiology assays, a cell line (Chinese Hamster Ovarian K-1 cells (CHO K-1)) engineered to stably express human sodium channel NaV1.2 was purchased from Millipore Corporation (catalog no. CYL3023). The electrophysiology measurements were performed using automated patch-clamp methods on a Q-Patch HTX instrument by scientists at Evotec AG under contract with Sunovion.
The solutions utilized for the Qpatch experiments were similar buffered solutions to those described by Liu et al. [Liu Y, Beck E J, & Flores C M (2011)]. The extracellular solution contained 140 millimolar sodium chloride, 4 millimolar potassium chloride, 2 millimolar calcium chloride, 1 millimolar magnesium chloride, 10 millimolar 4-(2-hydroxyethyl)-1-piperazineethanesulfonic acid (HEPES), and 10 millimolar glucose (pH adjusted to 7.4 with sodium hydroxide). The intracellular solution contained 100 millimolar cesium fluoride, 45 millimolar cesium chloride, 10 millimolar HEPES, 5 millimolar ethylene glycol tetraacetic acid (EGTA), and 5 millimolar glucose (pH adjusted to 7.2 with cesium hydroxide).
The biophysical experiments of Lui et al. [Liu Y, Beck E J, & Flores C M (2011)] were replicated to assess the fast, slow and total inactivation characteristics of the human Nav1.2 channel
Based upon results from studies of the fast, slow and total inactivation characteristics of the human Nav1.2 channel, a voltage protocol involving a sequence of consecutive pulses of current was used to measure channel activity in several states [Liu Y, Beck E J, & Flores C M (2011)]. The monolayer of CHO K-1 cells stably expressing human sodium channel NaV1.2 (hNaV1.2 CHO cells) was maintained in the Qpatch instrument at a potential of −100 millivolts (mV) except when the voltage protocol was being executed. The first pulse in the protocol involved a 100 millisecond depolarization to 0 mV to enable measurement of channel availability in the closed state (state A). The potential was then maintained at −90 mV for 15 milliseconds, followed by a five millisecond period of depolarization to 0 mV to enable measurement of channel availability after partial recovery from fast inactivation (state B). Next, the potential was maintained at −90 mV for 300 milliseconds, followed by ten seconds at −50 mV, 15 milliseconds at −90 mV, and finally another five millisecond period of depolarization to 0 mV to enable measurement of channel availability after additional recovery from fast inactivation and significant entry into the slow inactivated state (state C). Finally, after an additional 300 millisecond period at −90 mV, another five millisecond period of depolarization to 0 mV was employed to enable measurement of channel availability after partial recovery from the slow inactivated state (state D). Measurements of activity at state C were used to assess the activity of the NaV1.2 channel in the slow inactivated state. Comparison of activity after addition of test compounds or reference compounds with activity after addition of vehicle only provided a measure of percent remaining activity from which percent inhibition was calculated. […] A slight modification of this protocol was utilized to provide measurements as a function of compound concentration, which enabled IC50 values to be determined. IC50 values were calculated by non-linear least squares regression of the data (percent inhibition of ion channel NaV1.2 activity in the slow inactivated state) onto equation (1): % inhibition=100%/(1+(IC50/[compound]) equation (1)
J Pharmacol Exp Ther. 2008 July; 326(1):89-99.].

Chain of human sodium channel NaV1.2 (Q99250 whole entry): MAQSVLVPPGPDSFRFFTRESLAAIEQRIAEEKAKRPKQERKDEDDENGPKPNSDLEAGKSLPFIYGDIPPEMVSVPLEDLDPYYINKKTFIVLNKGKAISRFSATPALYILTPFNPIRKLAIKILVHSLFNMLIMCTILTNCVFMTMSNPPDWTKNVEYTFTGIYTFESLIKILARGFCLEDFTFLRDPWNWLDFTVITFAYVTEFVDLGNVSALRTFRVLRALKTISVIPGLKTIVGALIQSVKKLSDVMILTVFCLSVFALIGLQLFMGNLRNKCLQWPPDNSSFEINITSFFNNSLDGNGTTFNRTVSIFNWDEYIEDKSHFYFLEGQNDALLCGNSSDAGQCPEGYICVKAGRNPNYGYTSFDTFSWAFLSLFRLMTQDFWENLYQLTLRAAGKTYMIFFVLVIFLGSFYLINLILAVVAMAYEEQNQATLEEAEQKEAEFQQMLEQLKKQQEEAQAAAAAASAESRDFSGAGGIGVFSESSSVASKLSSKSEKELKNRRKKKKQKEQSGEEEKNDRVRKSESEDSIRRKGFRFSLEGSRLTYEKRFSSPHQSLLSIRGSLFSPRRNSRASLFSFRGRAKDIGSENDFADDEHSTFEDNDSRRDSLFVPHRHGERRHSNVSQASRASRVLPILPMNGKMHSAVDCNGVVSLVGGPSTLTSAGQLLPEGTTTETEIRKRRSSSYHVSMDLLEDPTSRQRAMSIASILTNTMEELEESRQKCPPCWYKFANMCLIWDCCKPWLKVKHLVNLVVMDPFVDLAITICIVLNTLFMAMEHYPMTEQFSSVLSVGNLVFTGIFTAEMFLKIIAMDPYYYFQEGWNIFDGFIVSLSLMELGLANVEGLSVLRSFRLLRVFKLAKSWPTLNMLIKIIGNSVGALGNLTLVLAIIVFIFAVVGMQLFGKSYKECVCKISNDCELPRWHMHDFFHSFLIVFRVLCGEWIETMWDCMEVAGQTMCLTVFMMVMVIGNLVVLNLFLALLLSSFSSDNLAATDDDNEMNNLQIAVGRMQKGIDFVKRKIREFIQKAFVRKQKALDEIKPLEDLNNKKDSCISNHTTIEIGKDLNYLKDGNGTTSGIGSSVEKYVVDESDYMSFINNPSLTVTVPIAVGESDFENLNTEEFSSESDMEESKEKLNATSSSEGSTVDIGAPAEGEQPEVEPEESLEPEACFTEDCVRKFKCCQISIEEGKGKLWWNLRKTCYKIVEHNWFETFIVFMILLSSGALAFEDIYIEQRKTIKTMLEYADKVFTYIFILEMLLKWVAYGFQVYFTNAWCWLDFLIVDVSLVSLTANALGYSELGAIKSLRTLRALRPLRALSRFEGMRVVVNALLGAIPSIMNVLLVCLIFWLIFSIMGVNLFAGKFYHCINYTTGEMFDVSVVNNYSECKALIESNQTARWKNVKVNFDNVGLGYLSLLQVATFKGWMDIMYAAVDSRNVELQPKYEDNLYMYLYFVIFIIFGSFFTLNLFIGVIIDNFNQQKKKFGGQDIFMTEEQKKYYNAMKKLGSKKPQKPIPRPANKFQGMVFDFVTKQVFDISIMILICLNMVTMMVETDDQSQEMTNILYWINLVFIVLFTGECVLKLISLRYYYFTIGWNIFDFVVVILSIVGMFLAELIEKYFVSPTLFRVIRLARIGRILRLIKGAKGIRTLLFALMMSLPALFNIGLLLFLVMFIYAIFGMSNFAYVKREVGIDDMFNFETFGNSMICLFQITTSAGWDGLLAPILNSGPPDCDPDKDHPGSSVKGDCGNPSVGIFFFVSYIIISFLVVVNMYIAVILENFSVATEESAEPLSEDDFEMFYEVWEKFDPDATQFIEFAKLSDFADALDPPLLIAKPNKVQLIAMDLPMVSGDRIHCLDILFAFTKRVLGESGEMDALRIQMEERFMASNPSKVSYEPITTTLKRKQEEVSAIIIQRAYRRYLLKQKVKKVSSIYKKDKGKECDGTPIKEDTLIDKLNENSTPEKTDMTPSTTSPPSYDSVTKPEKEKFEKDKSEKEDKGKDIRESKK

| Compound | IC50 [µM] |
| --- | --- |
| COC[C@@H](NC(C)=O)C(=O)NCc1ccccc1 [lacosamide, reference compound] | 65 |

same assay, conditions: hNaV1.2 CHO cells, slow inactivated state; read-out: NaV1.2 IC50

| Compound | IC50 [µM] |
| --- | --- |
| COc1ccc2c(c1)C(C)(CN1CCC(Oc3ccccc3OC)CC1)CC2 (stereo not shown) [Example 97, 1-((6-methoxy-1-methyl-2,3-dihydro-1H-inden-1-yl)methyl)-4-(2-methoxyphenoxy)piperidine] | 0.08 |

same assay, conditions: reference compound, Test 1; read-out: IC50 (μM) for NaV1.2 slow inactivated state, Test 1

| Compound | IC50 [µM] |
| --- | --- |
| Nc1nnc(-c2cccc(Cl)c2Cl)c(N)n1 [lamotrigine, reference compound] | 34 |
| NC(=O)N1c2ccccc2C=Cc2ccccc21 [carbamazepine, reference compound] | 19 |

same assay, conditions: reference compound, Test 2; read-out: IC50 (μM) for NaV1.2 slow inactivated state, Test 2

| Compound | IC50 [µM] |
| --- | --- |
| Nc1nnc(-c2cccc(Cl)c2Cl)c(N)n1 [lamotrigine, reference compound] | 33 |
| NC(=O)N1c2ccccc2C=Cc2ccccc21 [carbamazepine, reference compound] | 22 |

same assay, conditions: reference compound, Test 3; read-out: IC50 (μM) for NaV1.2 slow inactivated state, Test 3

| Compound | IC50 [µM] |
| --- | --- |
| Nc1nnc(-c2cccc(Cl)c2Cl)c(N)n1 [lamotrigine, reference compound] | 25 |

target: T1, recombinant human serotonin receptor 5-HT2A (Homo sapiens, UniProt P28223); test: 5-HT2A antagonist Ca2+ assay in CHO-K1 cells (method A aequorin luminescence / method B FLIPR fluorescence); format: cell-based; conditions: 5HT2A IC50, μM, antagonist mode vs EC80 of reference agonist, method A or B
T1 construct: expressed in transfected cells; method B: loaded with Ca2+ dye
Procedure, shortened: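 Method A: CHO-K1 cells co-expressing human 5-HT2A and mitochondrial apoaequorin were given reference agonist at EC80 15 min after compound, with luminescence read. Method B: dye-loaded 5-HT2A CHO-K1 cells were pretreated with compound, then given serotonin at EC80, with FLIPR fluorescence read. IC50s came from nonlinear fits of percent inhibition.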

T1 sequence (P28223 whole entry): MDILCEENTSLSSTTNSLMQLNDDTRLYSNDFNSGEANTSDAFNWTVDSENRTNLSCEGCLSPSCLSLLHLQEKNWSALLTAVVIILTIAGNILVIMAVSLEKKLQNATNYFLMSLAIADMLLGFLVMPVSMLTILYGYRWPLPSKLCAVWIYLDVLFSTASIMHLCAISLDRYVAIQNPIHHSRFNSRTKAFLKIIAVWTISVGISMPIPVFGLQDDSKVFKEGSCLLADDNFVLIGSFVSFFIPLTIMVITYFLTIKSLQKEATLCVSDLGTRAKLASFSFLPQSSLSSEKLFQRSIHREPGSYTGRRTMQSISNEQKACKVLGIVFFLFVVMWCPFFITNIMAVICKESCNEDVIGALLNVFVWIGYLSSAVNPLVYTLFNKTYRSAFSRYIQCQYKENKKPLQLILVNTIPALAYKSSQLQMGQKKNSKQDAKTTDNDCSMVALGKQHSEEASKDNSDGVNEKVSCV

| Compound | IC50 [µM] |
| --- | --- |
| O[C@@H](COC1CCCCC1)CN1[C@@H]2CC[C@H]1CN(c1ccc(F)cc1)C2 [Example 290, (R)-1-(cyclohexyloxy)-3-((1R,5S)-3-(4-fluorophenyl)-3,8-diazabicyclo[3.2.1]octan-8-yl)propan-2-ol] | 0.002 |

same assay, conditions: antagonist mode vs EC80 of reference agonist, method A or B, read-out: 5HT2A IC50

| Compound | IC50 [µM] |
| --- | --- |
| COCc1cccc(OC2CCN(CC3Cc4cccnc4C3)CC2)c1 (stereo not shown) [Example 152, 6-((4-(3-(methoxymethyl)phenoxy)piperidin-1-yl)methyl)-6,7-dihydro-5H-cyclopenta[b]pyridine] | 0.22 |
| OC(COC1COCc2ccccc21)CN1CCC(Oc2ccccc2)CC1 (stereo not shown) [Example 239, 1-(isochroman-4-yloxy)-3-(4-phenoxypiperidin-1-yl)propan-2-ol] | 3.51 |
| OC(COc1ccccc1)CN1C[C@@H]2C[C@H](C1)N(c1ccccc1)C2 (stereo partly drawn) [Example 334, 1-phenoxy-3-((1S,5R)-6-phenyl-3,6-diazabicyclo[3.2.1]octan-3-yl)propan-2-ol] | > 16.7 |
| O=C1c2ccccc2CCN1CCN1CCCCC(Oc2ccc(F)cc2)C1 (stereo not shown) [Example 280, 2-(2-(3-(4-fluorophenoxy)azepan-1-yl)ethyl)-3,4-dihydroisoquinolin-1(2H)-one] | 4.89 |
| OC(COc1ccccc1)CN1CCCC12CCN(c1ccccc1)CC2 (stereo not shown) [Example 352, 1-phenoxy-3-(8-phenyl-1,8-diazaspiro[4.5]decan-1-yl)propan-2-ol] | > 5.3 |
| c1ccc2c(c1)CCC1(CCN(CCO[C@@H]3CCc4ccccc43)CC1)O2 [Example 431, (R)-1′-(2-((2,3-dihydro-1H-inden-1-yl)oxy)ethyl)spiro[chromane-2,4′-piperidine]] | 0.71 |
| O=C1CC2(CN(CC3CCc4ccccc43)C2)Oc2ccccc21 (stereo not shown) [Example 386, 1-((2,3-dihydro-1H-inden-1-yl)methyl)spiro[azetidine-3,2′-chroman]-4′-one] | 3.76 |
| COCc1cccc(OC2CCN(CC3CCc4ccc(OC)cc43)CC2)c1 (stereo not shown) [Example 111, 1-((6-methoxy-2,3-dihydro-1H-inden-1-yl)methyl)-4-(3-(methoxymethyl)phenoxy)piperidine] | 0.21 |
| CC(C1CCc2ccccc21)N1CCC[C@H](Oc2ccc(F)cc2)C1 (stereo partly drawn) [Example 257, (3S)-1-(1-(2,3-dihydro-1H-inden-1-yl)ethyl)-3-(4-fluorophenoxy) piperidine] | > 10 |
| O[C@H](COC1CCCCC1)CN1C[C@@H]2C[C@H](C1)N(c1ccccc1)C2 [Example 333, (S)-1-(cyclohexyloxy)-3-((1S,5R)-6-phenyl-3,6-diazabicyclo[3.2.1]octan-3-yl)propan-2-ol] | > 16.7 |
| O=C1c2ccccc2CCN1CCN1CC[C@H](Oc2cccnc2)C1 [Example 24, (S)-2-(2-(3-(pyridin-3-yloxy)pyrrolidin-1-yl)ethyl)-3,4-dihydroisoquinolin-1(2H)-one] | > 16.7 |
| COc1ccccc1OC1CCN(CC2COc3ccccc32)CC1 (stereo not shown) [Example 130, 1-((2,3-dihydrobenzofuran-3-yl)methyl)-4-(2-methoxyphenoxy)piperidine] | > 10 |
| OC(COC1CCCCC1)CN1CCC2(CC1)CCN(c1ccccc1)C2 (stereo not shown) [Example 354, 1-(cyclohexyloxy)-3-(2-phenyl-2,8-diazaspiro[4.5]decan-8-yl)propan-2-ol] | 1.94 |
| O[C@@H](COC1CCCCC1)CN1C[C@@H]2C[C@H](C1)N(c1ccccc1)C2 [Example 332, (R)-1-(cyclohexyloxy)-3-((1S,5R)-6-phenyl-3,6-diazabicyclo[3.2.1]octan-3-yl)propan-2-ol] | > 16.7 |
| OC1(CN2CCC3(CCc4ccccc4O3)CC2)COCc2ccccc21 (stereo not shown) [Example 413, 4-(spiro[chromane-2,4′-piperidin]-1′-ylmethyl)isochroman-4-ol] | 1.1 |
| O[C@@H](COC1CCCCC1)CN1[C@@H]2CC[C@H]1CN(c1nccs1)C2 [Example 291, (R)-1-(cyclohexyloxy)-3-((1R,5S)-3-(thiazol-2-yl)-3,8-diazabicyclo[3.2.1]octan-8-yl)propan-2-ol] | > 10 |
| OC(CO[C@H]1CCCc2ccccc21)CN1CC[C@@H](Oc2ccc(F)cc2)C1 (stereo partly drawn) [Example 48, 1-((R)-3-(4-fluorophenoxy)pyrrolidin-1-yl)-3-(((S)-1,2,3,4-tetrahydronaphthalen-1-yl)oxy)propan-2-ol] | 2.22 |
| Fc1ccc(O[C@@H]2CCCN(CC3COCc4ccccc43)C2)cc1 (stereo partly drawn) [Example 260, (3R)-3-(4-fluorophenoxy)-1-(isochroman-4-ylmethyl)piperidine] | 1.81 |
| COc1ccc2c(c1)C(CN1CCC(OCc3cccnc3)CC1)CC2 (stereo not shown) [Example 246, 3-(((1-((6-methoxy-2,3-dihydro-1H-inden-1-yl)methyl)piperidin-4-yl)oxy)methyl)pyridine] | 0.98 |
| COc1ccc2c(c1)C(CN1C[C@H]3CC[C@@H]1CN3c1ccccc1)CC2 (single isomer, unassigned) [Compound 314] | > 10 |
| O[C@@H](COC1CCCCC1)CN1C[C@H]2CC[C@@H](C1)N2c1ccccc1 [Example 301, (R)-1-(cyclohexyloxy)-3-((1R,5S)-8-phenyl-3,8-diazabicyclo[3.2.1]octan-3-yl)propan-2-ol] | > 10 |
| c1ccc2c(c1)CC1(CCN(CC3CCc4cccnc43)CC1)O2 (stereo not shown) [Example 394, 1′-((6,7-dihydro-5H-cyclopenta[b]pyridin-7-yl)methyl)-3H-spiro[benzofuran-2,4′-piperidine]] | > 10.9 |
| COc1ccc2c(c1)C(CN1C[C@H]3CC[C@@H](C1)N3c1ccccc1)CC2 (stereo partly drawn) [Example 296, (1R,5S)-3-((6-methoxy-2,3-dihydro-1H-inden-1-yl)methyl)-8-phenyl-3,8-diazabicyclo[3.2.1]octane] | > 10 |
| Cc1cccc(N2CCN(CC3(O)CCOc4ccccc43)CC2)c1C (stereo not shown) [Example 58, 4-((4-(2,3-dimethylphenyl)piperazin-1-yl)methyl)chroman-4-ol] | 0.49 |
| C[C@H]1C[C@]2(CCc3ccccc3O2)CCN1CCO[C@H]1CCc2ccccc21 [Example 433, (2S,2′S)-1′-(2-(((S)-2,3-dihydro-1H-inden-1-yl)oxy)ethyl)-2′-methylspiro[chromane-2,4′-piperidine]] | 0.32 |
| C[C@H]1C[C@@]2(CCc3ccccc3O2)CCN1CCN1CCc2ccccc2C1=O [Example 424, 2-(2-((2R,2′S)-2′-methylspiro[chromane-2,4′-piperidin]-1′-yl)ethyl)-3,4-dihydroisoquinolin-1(2H)-one] | 0.05 |

Reference: patent US11186564B2, “Dual NAV1.2/5HT2a inhibitors for treating CNS disorders” (Sunovion Pharmaceuticals Inc., priority 2016, dated 2021)
